Measured values as given in ChEMBL document CHEMBL1201862, “PubChem BioAssay data set” (2004).
Calls of active or inactive are those of the source.

Experiments:
[1] = target: Cystic fibrosis transmembrane conductance regulator/Golgi-associated PDZ and coiled-coil motif-containing protein (Homo sapiens, UniProt P13569+Q9HD26); experiment: potency against CAL PDZ-peptide interaction – biochemical, fluorescence polarization, Cerulean-tagged CAL PDZ, cherry-picks, dose response (AID 504773)
HeLa = experiment: viability loss in HeLa cells – cell-based, 24 h, cherry-picked samples, cytotoxicity control, dose response (AID 504726); assay type: functional; conditions: Homo sapiens;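 further: potency for cytotoxicity as loss of luminescence signal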
ORF 73 = ORF 73 (Human herpesvirus 8, UniProt O40947); experiment: KSHV LANA DNA-binding disruption – biochemical, fluorescence polarization, cherry-picked samples, dose response (AID 504725); design: species or system Human gammaherpesvirus 8;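 further: fluorescence polarization of a labeled DNA duplex reporting LANA DNA binding; potency is for inhibitors that block LANA binding to the DNA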
Sequence of ORF 73 (O40947 whole entry): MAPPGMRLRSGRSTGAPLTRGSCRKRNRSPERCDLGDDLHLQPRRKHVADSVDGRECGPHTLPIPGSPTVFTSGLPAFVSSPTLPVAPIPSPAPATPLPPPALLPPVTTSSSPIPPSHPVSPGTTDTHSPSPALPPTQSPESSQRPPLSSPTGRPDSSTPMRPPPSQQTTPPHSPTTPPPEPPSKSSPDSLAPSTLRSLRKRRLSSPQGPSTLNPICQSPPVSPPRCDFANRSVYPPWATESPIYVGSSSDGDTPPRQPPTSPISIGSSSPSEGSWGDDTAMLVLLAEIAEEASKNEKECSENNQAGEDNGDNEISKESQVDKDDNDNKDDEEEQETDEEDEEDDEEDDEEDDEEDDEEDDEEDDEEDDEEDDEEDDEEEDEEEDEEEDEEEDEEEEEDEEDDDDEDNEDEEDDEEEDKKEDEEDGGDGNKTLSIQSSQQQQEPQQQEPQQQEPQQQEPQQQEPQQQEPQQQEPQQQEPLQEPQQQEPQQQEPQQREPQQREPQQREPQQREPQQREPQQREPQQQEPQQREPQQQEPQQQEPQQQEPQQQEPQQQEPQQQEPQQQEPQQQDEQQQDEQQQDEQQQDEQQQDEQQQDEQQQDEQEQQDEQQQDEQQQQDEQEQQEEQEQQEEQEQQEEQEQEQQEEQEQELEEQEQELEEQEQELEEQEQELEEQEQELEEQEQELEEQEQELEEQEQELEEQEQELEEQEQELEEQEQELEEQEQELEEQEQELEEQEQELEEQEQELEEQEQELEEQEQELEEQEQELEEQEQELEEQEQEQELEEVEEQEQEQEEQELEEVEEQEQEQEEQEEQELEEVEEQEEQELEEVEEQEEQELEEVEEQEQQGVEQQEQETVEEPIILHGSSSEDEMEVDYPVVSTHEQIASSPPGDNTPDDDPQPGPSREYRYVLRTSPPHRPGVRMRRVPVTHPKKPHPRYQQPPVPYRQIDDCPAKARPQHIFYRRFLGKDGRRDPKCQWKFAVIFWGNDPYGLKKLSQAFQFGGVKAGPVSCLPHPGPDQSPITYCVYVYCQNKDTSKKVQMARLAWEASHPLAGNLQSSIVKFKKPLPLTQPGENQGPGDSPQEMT

Nonstructural protein 1 = Nonstructural protein 1 (Influenza A virus, UniProt Q194T2); assay type: functional, Influenza A virus (A/California/07/2009(H1N1))
Sequence of Nonstructural protein 1 (Q194T2 whole entry): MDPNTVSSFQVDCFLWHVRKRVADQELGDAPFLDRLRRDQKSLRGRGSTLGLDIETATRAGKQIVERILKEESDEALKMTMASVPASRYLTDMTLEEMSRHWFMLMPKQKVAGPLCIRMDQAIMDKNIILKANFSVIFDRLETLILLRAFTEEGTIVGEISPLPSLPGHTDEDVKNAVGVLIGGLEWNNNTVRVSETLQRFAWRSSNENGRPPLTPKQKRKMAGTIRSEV

[2] = target: UDP-galactopyranose mutase (Mycobacterium tuberculosis, UniProt P9WIQ1); experiment: Inhibitors of Mycobacterium tuberculosis UDP-galactopyranose mutase (UGM) enzyme Measured in Biochemical System Using Plate Reader - 2105-02_Inhibitor_Dose_CherryPick_Activity. [Related pubchem assays (depositor defined):AID504439]
Sequence of UDP-galactopyranose mutase (P9WIQ1 whole entry): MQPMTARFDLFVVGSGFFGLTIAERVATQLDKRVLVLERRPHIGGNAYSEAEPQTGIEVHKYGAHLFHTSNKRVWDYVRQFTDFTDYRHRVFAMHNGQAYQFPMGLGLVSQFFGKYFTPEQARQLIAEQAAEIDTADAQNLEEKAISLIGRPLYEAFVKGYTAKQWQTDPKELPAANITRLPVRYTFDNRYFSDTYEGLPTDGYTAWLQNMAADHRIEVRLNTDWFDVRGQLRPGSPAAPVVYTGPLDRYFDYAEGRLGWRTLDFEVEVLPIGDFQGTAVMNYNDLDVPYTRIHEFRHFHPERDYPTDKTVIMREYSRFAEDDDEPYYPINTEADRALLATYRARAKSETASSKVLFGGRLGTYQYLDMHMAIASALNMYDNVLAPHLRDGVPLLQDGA

Keap1/Nrf2 = Keap1/Nrf2 (Homo sapiens, UniProt Q14145); experiment: disruptors of Keap1 binding to Nrf2 peptide – biochemical, fluorescence polarization, cherry-picked samples, dose response (AID 588683)
Mu-type opioid receptor = Mu-type opioid receptor (Homo sapiens, UniProt P35372); experiment: SAR Analysis of Antagonists of the MOR Receptor using an Image-Based Assay - Set 3. [Related pubchem assays (depositor defined):AID1777, AID1785, AID1786, AID1966, AID2133, AID2136, AID2284, AID2285, AID2420]; assay type: functional
[3] = target: T1, Kappa-type opioid receptor (Homo sapiens, UniProt P41145); experiment: SAR analysis of small molecule antagonists of the kappa opioid receptor via a luminescent beta-arrestin assay - Set 6. [Related pubchem assays (depositor defined):AID1777, AID1778, AID1785, AID1786, AID1966, AID2133, AID2136, AID2285]; assay type: functional
T1 sequence (P41145 whole entry): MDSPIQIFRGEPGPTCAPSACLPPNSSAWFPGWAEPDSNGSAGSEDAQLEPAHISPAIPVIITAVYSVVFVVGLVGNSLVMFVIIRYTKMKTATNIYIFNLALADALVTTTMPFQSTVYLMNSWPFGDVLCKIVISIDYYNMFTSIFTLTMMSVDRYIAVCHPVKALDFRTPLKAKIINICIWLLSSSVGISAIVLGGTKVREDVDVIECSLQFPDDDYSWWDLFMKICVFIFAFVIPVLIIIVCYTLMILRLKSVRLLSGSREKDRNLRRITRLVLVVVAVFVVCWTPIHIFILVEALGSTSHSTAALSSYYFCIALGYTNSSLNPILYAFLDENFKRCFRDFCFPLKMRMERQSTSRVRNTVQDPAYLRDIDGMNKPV

[4] = target: T1, Kappa-type opioid receptor; experiment: SAR analysis of small molecule antagonists of the kappa opioid receptor via a luminescent beta-arrestin assay - Set 4. [Related pubchem assays (depositor defined):AID1777, AID1778, AID1785, AID1786, AID1966, AID2133, AID2136, AID2285]; assay type: functional
[5] = target: Delta-type opioid receptor (Homo sapiens, UniProt P41143); experiment: SAR Analysis of Antagonists of the DOR Receptor using an Image-Based Assay - Set 3. [Related pubchem assays (depositor defined):AID1777, AID1785]; assay type: functional;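 further: U2OS cells expressing DOR1 and beta-arrestin GFP stimulated with 100 nM SNC80; imaging of GFP-tagged beta-arrestin moving into spots after receptor activation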
[6] = target: T1, Kappa-type opioid receptor; experiment: SAR analysis of Antagonists of the Kappa Opioid Receptor (KOR) using an Image-Based Assay - Set 4. [Related pubchem assays (depositor defined):AID1777, AID1785]; assay type: functional
[7] = target: Cyclin-dependent kinase 5/CDK5 activator 1 (Homo sapiens, UniProt Q00535); experiment: blockade of human CDK5 activity – biochemical, cherry-picked samples, set 2, dose response (AID 504545)
Estrogen receptor = target: T2, Estrogen receptor (Homo sapiens, UniProt P03372);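 further: potency for inhibiting coactivator peptide recruitment to the receptor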
T2 sequence (P03372 whole entry): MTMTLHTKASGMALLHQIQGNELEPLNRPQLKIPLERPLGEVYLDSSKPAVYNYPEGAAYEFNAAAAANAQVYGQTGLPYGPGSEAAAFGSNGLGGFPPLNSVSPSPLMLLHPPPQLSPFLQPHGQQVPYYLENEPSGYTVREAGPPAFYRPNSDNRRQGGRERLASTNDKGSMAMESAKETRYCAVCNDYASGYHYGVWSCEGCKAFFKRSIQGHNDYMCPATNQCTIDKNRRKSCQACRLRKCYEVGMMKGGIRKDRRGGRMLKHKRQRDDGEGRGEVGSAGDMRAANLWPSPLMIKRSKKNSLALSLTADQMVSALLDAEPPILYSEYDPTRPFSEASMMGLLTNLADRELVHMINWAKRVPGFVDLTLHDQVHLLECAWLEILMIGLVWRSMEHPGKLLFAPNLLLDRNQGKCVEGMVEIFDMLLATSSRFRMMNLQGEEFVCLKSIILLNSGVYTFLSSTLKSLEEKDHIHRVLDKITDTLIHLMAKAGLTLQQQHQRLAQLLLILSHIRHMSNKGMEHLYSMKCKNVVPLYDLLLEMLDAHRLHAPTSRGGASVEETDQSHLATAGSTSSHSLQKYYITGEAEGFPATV

Estrogen receptor beta [8] = target: T3, Estrogen receptor beta (Homo sapiens, UniProt Q92731);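 further: recombinant ER-beta bound to coactivator SRC1 peptide in presence of estradiol agonist; inhibitors block coactivator peptide binding and lower the FRET signal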
T3 sequence (Q92731 whole entry): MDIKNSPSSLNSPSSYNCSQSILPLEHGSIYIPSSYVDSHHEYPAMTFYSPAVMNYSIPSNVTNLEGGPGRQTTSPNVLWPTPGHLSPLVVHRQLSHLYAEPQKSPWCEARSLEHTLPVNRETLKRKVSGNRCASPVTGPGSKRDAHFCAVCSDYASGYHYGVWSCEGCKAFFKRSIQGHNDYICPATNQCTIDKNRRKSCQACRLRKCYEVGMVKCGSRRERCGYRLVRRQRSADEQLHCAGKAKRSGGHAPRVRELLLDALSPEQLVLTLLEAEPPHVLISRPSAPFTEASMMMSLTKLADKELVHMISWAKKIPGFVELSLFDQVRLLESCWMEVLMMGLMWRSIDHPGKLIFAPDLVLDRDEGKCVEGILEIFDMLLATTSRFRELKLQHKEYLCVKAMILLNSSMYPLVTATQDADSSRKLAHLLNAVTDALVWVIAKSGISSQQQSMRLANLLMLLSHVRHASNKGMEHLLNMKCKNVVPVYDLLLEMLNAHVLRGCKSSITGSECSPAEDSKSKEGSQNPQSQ

Estrogen receptor beta [9] = target: T3, Estrogen receptor beta; experiment: blockers of SRC-3 recruitment to ERβ – biochemical, ELISA, streptavidin-HRP readout, orthogonal assay, confirmation (AID 1060)
[10] = target: Scavenger receptor class B member 1 (Mus musculus, UniProt Q61009); experiment: mouse SR-BI DiI-HDL uptake blockers – ldlA[mSR-BI] cells, fluorescence, cherry pick, dose response (AID 493194); assay type: functional, cell-based;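 further: cellular uptake of fluorescent DiI-labeled HDL measured as cell fluorescence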
[11] = HEK-293T viability loss after treatment – luminescence, T-cell screen hits, cytotoxicity control for TCR NF-kB inhibitor project, dose response (AID 489026); assay type: functional, cell-based;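 further: cells exposed to compound about 14 hours before the viability readout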
[12] = target: T4, Voltage-dependent T-type calcium channel subunit alpha-1H (Homo sapiens, UniProt O95180); assay type: functional
T4 sequence (O95180 whole entry): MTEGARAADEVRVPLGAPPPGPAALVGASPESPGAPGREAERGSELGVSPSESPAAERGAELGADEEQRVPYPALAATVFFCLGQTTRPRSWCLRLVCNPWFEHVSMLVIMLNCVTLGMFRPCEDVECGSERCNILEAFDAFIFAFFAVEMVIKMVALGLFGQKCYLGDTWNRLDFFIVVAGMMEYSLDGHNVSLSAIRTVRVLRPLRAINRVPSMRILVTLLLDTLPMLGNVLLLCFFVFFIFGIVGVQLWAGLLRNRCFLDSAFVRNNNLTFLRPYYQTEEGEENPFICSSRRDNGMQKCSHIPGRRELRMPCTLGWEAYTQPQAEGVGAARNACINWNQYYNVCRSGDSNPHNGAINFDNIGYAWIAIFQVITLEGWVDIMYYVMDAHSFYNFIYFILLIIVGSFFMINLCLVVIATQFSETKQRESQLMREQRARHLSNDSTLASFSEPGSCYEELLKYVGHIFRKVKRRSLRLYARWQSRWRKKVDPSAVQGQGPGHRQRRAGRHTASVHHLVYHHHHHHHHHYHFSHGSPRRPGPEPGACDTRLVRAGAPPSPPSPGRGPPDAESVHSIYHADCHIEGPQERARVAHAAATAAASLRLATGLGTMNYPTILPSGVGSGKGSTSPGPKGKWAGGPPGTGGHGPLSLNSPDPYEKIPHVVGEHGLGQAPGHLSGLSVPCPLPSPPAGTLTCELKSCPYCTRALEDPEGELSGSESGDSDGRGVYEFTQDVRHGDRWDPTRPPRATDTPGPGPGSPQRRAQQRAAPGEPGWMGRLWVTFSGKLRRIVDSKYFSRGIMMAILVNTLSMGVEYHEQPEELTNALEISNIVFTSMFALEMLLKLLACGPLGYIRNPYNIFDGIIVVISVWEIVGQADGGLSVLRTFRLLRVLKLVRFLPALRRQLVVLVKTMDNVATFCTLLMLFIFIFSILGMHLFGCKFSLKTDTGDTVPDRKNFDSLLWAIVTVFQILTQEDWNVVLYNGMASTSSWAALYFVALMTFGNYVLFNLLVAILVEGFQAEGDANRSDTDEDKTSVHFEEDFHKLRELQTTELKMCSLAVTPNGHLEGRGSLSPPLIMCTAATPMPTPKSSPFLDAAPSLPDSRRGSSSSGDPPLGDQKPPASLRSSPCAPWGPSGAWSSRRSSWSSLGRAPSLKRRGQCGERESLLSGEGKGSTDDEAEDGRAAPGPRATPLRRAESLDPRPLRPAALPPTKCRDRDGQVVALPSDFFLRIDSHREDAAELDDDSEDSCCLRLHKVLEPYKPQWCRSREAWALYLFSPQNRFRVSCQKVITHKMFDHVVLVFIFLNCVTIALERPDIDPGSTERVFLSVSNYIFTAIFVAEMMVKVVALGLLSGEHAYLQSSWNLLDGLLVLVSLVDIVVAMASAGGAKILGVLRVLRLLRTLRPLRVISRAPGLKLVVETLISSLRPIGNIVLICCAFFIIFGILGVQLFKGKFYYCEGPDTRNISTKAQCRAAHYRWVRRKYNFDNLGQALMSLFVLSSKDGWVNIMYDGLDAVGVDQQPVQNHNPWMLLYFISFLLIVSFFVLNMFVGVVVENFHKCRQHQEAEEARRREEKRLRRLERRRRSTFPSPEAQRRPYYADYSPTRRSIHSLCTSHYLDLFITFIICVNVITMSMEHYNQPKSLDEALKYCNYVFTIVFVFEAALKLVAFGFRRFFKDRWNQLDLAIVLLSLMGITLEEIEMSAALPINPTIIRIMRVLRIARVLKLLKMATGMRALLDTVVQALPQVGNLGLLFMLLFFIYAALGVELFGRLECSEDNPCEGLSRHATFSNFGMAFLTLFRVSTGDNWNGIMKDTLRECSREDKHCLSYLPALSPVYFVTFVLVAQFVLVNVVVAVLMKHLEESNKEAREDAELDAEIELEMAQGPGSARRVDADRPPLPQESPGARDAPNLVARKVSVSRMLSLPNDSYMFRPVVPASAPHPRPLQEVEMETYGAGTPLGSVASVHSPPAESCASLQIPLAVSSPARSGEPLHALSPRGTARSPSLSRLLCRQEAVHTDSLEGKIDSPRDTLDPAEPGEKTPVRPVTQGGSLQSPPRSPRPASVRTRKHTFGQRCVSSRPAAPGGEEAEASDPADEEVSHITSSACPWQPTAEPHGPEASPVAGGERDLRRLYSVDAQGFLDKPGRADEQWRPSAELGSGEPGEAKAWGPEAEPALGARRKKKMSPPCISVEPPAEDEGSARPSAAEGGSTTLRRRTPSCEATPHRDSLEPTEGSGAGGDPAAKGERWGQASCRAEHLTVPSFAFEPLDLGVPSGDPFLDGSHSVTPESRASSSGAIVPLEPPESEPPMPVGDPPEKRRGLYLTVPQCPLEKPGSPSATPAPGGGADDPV

[13] = target: T4, Voltage-dependent T-type calcium channel subunit alpha-1H; experiment: Inhibitors of T-Type Calcium Channels. [Related pubchem assays (depositor defined):AID449739, AID463087, AID489005, AID493041, AID504579, AID504584, AID504619, AID504628]; assay type: functional
[14] = target: T5, Endoribonuclease toxin MazF (Escherichia coli K-12, UniProt P0AE70); experiment: activation of MazEF endoribonuclease cleavage – biochemical, fluorescence, single-stranded RNA substrate, uHTS hits, dose response (AID 588481); assay type: functional
T5 sequence (P0AE70 whole entry): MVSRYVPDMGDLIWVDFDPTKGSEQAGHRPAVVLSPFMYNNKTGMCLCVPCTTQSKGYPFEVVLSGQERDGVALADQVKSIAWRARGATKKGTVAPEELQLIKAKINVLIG

[15] = target: T5, Endoribonuclease toxin MazF; experiment: substrate-only fluorescence increase artefacts – biochemical, single-stranded RNase substrate, counter-screen for MazEF activator project, dose response (AID 588502); assay type: functional
[16] = target: T6, Nucleotide-binding oligomerization domain-containing protein 1 (Homo sapiens, UniProt Q9Y239); experiment: SAR analysis of NF-kappaB dependent luciferase using DAP as an inducer - Set 2. [Related pubchem assays (depositor defined):AID1566, AID1575, AID1578, AID1579, AID1849, AID1852, AID2264]; assay type: functional
T6 sequence (Q9Y239 whole entry): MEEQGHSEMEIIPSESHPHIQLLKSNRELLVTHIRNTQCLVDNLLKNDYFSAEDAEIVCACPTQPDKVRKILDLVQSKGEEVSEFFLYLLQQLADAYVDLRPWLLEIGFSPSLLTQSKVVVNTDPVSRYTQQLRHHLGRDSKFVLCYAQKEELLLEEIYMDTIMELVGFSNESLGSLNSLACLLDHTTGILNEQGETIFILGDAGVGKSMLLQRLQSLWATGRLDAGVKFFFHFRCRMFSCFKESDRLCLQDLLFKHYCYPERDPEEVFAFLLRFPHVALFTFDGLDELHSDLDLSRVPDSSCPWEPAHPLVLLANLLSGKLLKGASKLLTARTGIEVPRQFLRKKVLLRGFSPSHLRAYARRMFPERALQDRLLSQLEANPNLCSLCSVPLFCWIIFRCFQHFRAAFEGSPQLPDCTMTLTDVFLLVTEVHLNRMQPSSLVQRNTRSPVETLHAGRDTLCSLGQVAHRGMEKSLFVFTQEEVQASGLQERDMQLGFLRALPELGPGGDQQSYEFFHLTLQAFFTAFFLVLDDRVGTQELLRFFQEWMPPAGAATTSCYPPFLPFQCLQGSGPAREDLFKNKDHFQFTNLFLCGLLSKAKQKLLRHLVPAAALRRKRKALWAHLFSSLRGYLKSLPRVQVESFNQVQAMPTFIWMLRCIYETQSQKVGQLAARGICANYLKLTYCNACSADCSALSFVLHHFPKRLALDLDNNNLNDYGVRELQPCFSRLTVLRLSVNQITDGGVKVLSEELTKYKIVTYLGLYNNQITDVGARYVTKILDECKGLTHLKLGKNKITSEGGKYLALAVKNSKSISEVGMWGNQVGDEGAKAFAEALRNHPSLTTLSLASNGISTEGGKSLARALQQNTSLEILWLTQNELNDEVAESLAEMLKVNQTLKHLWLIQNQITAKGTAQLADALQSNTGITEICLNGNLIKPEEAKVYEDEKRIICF

Interleukin-8 [17] = target: T7, Interleukin-8 (Homo sapiens, UniProt P10145); experiment: SAR analysis of Tumor necrosis factor alpha (TNF-alpha) induced IL-8 secretion in MCF-7/NOD1 cells - Set 2. [Related pubchem assays (depositor defined):AID1575, AID2250, AID2260]; assay type: functional, cell-based
T7 sequence (P10145 whole entry): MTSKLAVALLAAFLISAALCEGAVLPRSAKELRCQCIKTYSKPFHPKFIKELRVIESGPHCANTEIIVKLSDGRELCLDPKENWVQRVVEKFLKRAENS

Interleukin-8 [18] = target: T7, Interleukin-8; experiment: SAR analysis of GM-Tri-DAP induced IL-8 secretion in MCF-7/NOD1 cells - Set 2. [Related pubchem assays (depositor defined):AID1575, AID1578, AID2333]; assay type: functional, cell-based
Tumor necrosis factor = Tumor necrosis factor (Homo sapiens, UniProt P01375); experiment: analog potency on TNFa NF-kB signaling – cell-based, revised, SAR follow-up (AID 2337); assay type: functional
[19] = target: T6, Nucleotide-binding oligomerization domain-containing protein 1; experiment: blockers of NOD1 pathway activity – revised, SAR follow-up (AID 2333); assay type: functional
[20] = target: Nucleotide-binding oligomerization domain-containing protein 2 (Homo sapiens, UniProt Q9HC29); experiment: PubChem AID 2334; assay type: functional
HEK293 = experiment: cells; conditions: Homo sapiens;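 further: cells exposed to compound for 14 hours overnight before viability readout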
[21] = target: Signal transducer and activator of transcription 3 (Homo sapiens, UniProt P40763); experiment: STAT3 activation with BCL3 mRNA and toxicity – cell-based, […], BCL3 qPCR, cytotoxicity, late-stage follow-up, panel member STAT3 Activation (AID 2049)
[22] = target: Eukaryotic translation initiation factor 4H (Homo sapiens, UniProt Q15056); experiment: eIF4H binding inhibition – biochemical, uHTS, fluorescence polarization, translation initiation inhibitor project, primary screen (AID 2012)
[23] = target: Polyadenylate-binding protein 1 (Homo sapiens, UniProt P11940); experiment: blockers of PABP interaction with poly(A) – biochemical, fluorescence polarization, […] (AID 2014)
[24] = Cytotoxicity screening for potential Inhibitors of Bacterial Capsule Biogenesis. [Related pubchem assays (depositor defined):AID488970]; assay type: functional

CCNc1ccc2noc3c2c1C(=O)c1ccccc1-3
AC50 [1]: 4.08 µM (active) | AC50 (HeLa): 42.9 µM (active) | AC50 (ORF 73): 1.03 µM (active) | IC50 (Nonstructural protein 1): 62 µM (active) | AC50 [2]: 0.609 µM (active) | AC50 (Keap1/Nrf2): 0.866 µM (active)

CC(C)N(CCNC(=O)c1ccc(CNS(=O)(=O)c2ccc(-c3ccccc3)cc2)cc1)Cc1ccccc1
IC50 (Mu-type opioid receptor): > 32 µM (inactive) | IC50 [3]: > 20 µM (inactive) | IC50 [4]: 1.33 µM (active) | IC50 [5]: > 32 µM (inactive) | IC50 [6]: 0.432 µM (active)

COc1ccc2nc3c(cc2c1)c(NC(=O)C1CCCO1)nn3CC(C)C (stereo not given)
AC50 [7]: 31.2 µM (active)

Cc1c(C(=O)OCc2ccccc2)[nH]c2c1C(=O)CC(c1ccco1)C2 (stereo not given)
IC50 (Estrogen receptor): 23 µM (active) | IC50 (Estrogen receptor beta [8]): 15.1 µM (active) | IC50 (Estrogen receptor beta [9]): 9.51 µM (not active) | AC50 [10]: 0.258 µM (active) | IC50 [11]: > 80 µM (inactive)

Nc1c(C(=O)Nc2ccccc2F)sc2nc(Cc3ccccc3)cc(C(F)(F)F)c12
EC50 [12]: 2.71 µM (active) | AC50 (HeLa): 95.9 µM (active) | AC50 (ORF 73): 16.1 µM (active) | EC50 [13]: 1.9 µM (active) | EC50 [14]: 17.4 µM (active) | AC50 [2]: 98.6 µM (active) | EC50 [15]: > 99 µM (inactive)

Nc1nc2ccccc2n1CCOc1ccc(Cl)cc1
IC50 [16]: > 25 µM (inactive) | IC50 (Interleukin-8 [17]): > 25 µM (inactive) | IC50 (Interleukin-8 [18]): 8.6 µM (active) | IC50 (Tumor necrosis factor): > 20 µM (inactive) | IC50 [19]: 12.7 µM (active) | IC50 [20]: > 20 µM (inactive) | IC50 (HEK293): > 20 µM (inactive)

COc1cc(NC(=O)c2cc(C)on2)c(OC)cc1Cl
EC50 [21]: 6.98 µM (active)

CCOc1ccc2nc(SCC(=O)NC(=O)NCc3ccco3)[nH]c2c1
IC50 [22]: 13.3 µM (active) | IC50 [23]: 62.3 µM (active)

O=C(NCc1cc([N+](=O)[O-])ccc1O)c1cccnc1Sc1ccccc1
CC50 [24]: > 100 µM (active)
